This is an account of results in patent publication US6759546B1, “3,5-di-iso-propyl-heptatrienoic acid derivatives having serum glucose reducing activity” (Allergan, Inc., priority 2003, dated 2004).

The target in data set [1] is T1, RXRα (Homo sapiens, UniProt P19793).
T1 construct: expressed in transfected cells
T1 sequence (P19793 1-462): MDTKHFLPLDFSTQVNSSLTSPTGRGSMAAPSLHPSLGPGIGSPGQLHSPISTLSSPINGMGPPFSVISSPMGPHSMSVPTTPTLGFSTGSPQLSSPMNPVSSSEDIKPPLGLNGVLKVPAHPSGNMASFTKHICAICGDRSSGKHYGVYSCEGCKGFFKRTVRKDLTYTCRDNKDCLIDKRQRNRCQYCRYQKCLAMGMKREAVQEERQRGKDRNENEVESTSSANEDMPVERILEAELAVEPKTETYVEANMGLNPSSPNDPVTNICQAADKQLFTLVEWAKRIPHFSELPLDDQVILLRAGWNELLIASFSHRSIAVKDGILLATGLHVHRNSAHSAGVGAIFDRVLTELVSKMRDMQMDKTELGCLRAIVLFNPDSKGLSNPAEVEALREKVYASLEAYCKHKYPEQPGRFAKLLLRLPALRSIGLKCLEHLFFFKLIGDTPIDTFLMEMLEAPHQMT
Nature of the data set: holoreceptor transactivation assay. The note with it: percentage compared to the standard compound. Format: cell-based.
Description: (§1) The results obtained in this assay are expressed in EC50 numbers, as they are also in the chimeric receptor transactivation assay.
(§2) Particularly, the transactivation data pertaining to activation of the RAR receptors were obtained in the chimeric assay, and the transactivation data pertaining to the activation of RXR receptors were obtained in the holoreceptor assay.

For data set [2], the system named is female diabetic db/db mice. Description: serum glucose, triglyceride and thyroxine levels in db/db mice. Format: in vivo. Particulars: for Glucose Day 0 / Triglycerides Day 0 / Glucose Day 3, 3 h / Triglycerides Day 3, 3 h / Glucose Day 6, 3 h / T4 Day 7: 5 mg/kg oral gavage daily; for Glucose Day 0 / Triglycerides Day 0: day 0 (pre-treatment). The procedure: An assay described below tests the effect of compounds of the invention on serum glucose, tryglyceride and thyroxine levels in female 9-10 weeks old db/db mice.
Blood samples (70 μl) were taken by orbital bleeding at 11:00 AM on day 0 (pre-treatment), day 3, and day 6. On day 7, a blood sample (700 μl) was taken at 11:00 AM and the animals were sacrificed. Glucose, triglyceride and thyroxine (T4) levels were determined on a Boehringer Manheim Hatachi Clinical Chemistry Analyzer using standard protocols provided by the manufacturer and reagents that were supplied in commercially available kits (glucose and T4: Boehringer Manheim; triglycerides: Roche Diagnostics). Seven animals were treated in each group.

The target of data set [3] is T2, RXRβ (UniProt P28704).
T2 sequence (P28704 1-520): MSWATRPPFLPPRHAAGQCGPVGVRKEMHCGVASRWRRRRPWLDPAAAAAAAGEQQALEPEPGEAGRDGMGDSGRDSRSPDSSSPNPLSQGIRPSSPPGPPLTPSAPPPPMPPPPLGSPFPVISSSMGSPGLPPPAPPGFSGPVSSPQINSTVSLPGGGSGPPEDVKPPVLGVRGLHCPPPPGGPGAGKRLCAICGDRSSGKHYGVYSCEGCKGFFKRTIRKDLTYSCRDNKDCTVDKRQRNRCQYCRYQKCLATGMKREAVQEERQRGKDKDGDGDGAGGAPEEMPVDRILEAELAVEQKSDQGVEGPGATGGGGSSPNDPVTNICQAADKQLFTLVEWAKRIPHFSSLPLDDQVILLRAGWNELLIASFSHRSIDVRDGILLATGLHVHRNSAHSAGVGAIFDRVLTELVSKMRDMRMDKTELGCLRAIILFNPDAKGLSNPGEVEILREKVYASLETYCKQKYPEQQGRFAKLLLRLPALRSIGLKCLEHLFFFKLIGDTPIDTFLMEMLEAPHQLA
Nature of the data set: holoreceptor transactivation assay.
Description: as §1, §2

For the molecule `CC(/C=C/[C@@H]1C[C@]1(C)c1ccc2c(c1)C(C)(C)CCC2(C)C)=C\C(=O)O` [Standard compound], the “RXR Trans. efficacy α” value in data set [1] was 100%. Moreover, in data set [2] (Table 2), the “Glucose Day 0” value worked out at 378 mg/dL; the “Triglycerides Day 0” value stood at 171 mg/dL; the “Glucose Day 3, 3 h” value stood at 308 mg/dL; the “Triglycerides Day 3, 3 h” value amounted to 472 mg/dL. Besides, in data set [2] (Table 2), the “Glucose Day 6, 3 h” value came to 333 mg/dL and the “T4 Day 7” value came out at 1.2 µg/dL. Moreover, in data set [2] (Table 3), the “Glucose Day 0” value turned out to be 409 mg/dL; the “Triglycerides Day 0” value was found to be 193 mg/dL; the “Glucose Day 3, 3 h” value stood at 369 mg/dL; the “Triglycerides Day 3, 3 h” value worked out at 50 mg/dL. For the same molecule, in data set [2] (Table 3), the “Glucose Day 6, 3 h” value came out at 378 mg/dL and the “T4 Day 7” value came out at 1.4 µg/dL. Also, in data set [2] (diabetic mammals, summary in words), the “effect on serum thyroxine levels” value was “reducing serum thyroxine levels”. In addition, the “RXR Trans. efficacy β” value in data set [3] was 0.4 (100) 1%.
